Assay results reported in patent US10244779B2, “Method of improving stability of sweet enhancer and composition containing stabilized sweet enhancer” (SENOMYX, INC., priority 2010, dated 2019).

Key:
[1] = Photostability test of sweet enhancers with/without photostabilizers in Q-Sun Xenon Test Chamber
Experimental: Aqueous buffer solution at pH 7.1 contains 50 mM potassium dihydrogen phosphate and ˜32 mM sodium hydroxide (solutions of 1.0 M hydrochloric acid and 1.0 M sodium hydroxide are used to adjust pH). Aqueous buffer solution at pH 4.0 contains 50 mM citric acidmonosodium salt and ˜7.4 mM sodium hydroxide (solutions of 1.0 M hydrochloric acid and 1.0 M sodium hydroxide are used to adjust pH). Aqueous buffer solution at pH 2.8 contains 50 mM citric acid and ˜16 mM sodium hydroxide (solutions of 1.0 M hydrochloric acid and 1.0 M sodium hydroxide are used to adjust pH).
The stock solutions of the test compounds at 25 mM are made by dissolving the compounds in dimethyl sulfoxide. The solutions of the stabilizers are made by dissolving the materials in the aqueous buffers. The stock solutions are then diluted to 25 μM with the stabilizer solutions to prepare the test solution and 4-mL aliquots of the solutions are transferred to 20-mL clear glass vial for testing.
Accelerated photodegradation was studied using a Q-Sun Xenon Test Chamber (Q-Lab Model No. Xe-1-SC) at an irradiance setting of 350 mW/m^2 at 340 nm and temperature of 25 degrees Celsius. To put this in perspective, 24 hours of constant Q-Sun irradiation at these settings is approximately equivalent to 12.4 days of direct sunlight in the southwestern United States. At 0, 1, 2, 4, and 6 hours from the beginning of the radiation, a 0.4-mL aliquot from each vial is pippeted out to a 1-mL glass insert for analysis.
The samples are analyzed using an Agilent 1100 LC/MSD equipped with a quaternary pump and a diode-array detector (DAD). The peak areas from the MSD chromatograms are used for quantitation, and the photostability is shown by plotting the percentages of the test compound which remains intact at all time points. The peak areas from the DAD chromatograms are used for quantitation for stabilizers with concentration at 250 uM or higher. The instrument conditions are listed below. • Column: YMC ODS AQ 3 um, 4.0×23 mm • Column Temperature: Room temperature • Auto-sampler Temperature: Room temperature • Mobile Phase A: Water • Mobile Phase B: Methanol • Mobile Phase C: 1% Formic Acid • Gradient: % C is constant at 5%; % B from 5% to 95% in 2 min, then back to 5% at 2.1 min, and then held at 5% until 3.25 min; flow rate is 2 mL/min • Injection volume: 10 uL • Data Collection time: 2.75 minutes • MSD ion source: APCI • MSD Signal settings: Positive, selected ion monitoring (SIM) at the mass of the expected molecular ions. • UV detection wavelength: 230 nm. • MSD detection start time: 0.5 min
FIGS. 2 and 3 illustrate the photostability study of Compounds A and B under these condition: Direct sunlight was modeled using a Q-Sun Xenon Test Chamber (Q-Lab Model No. Xe-1-SC) at an irradiance setting of 350 mW/m^2 @340 nm, 25° C. Test samples were irradiated in the Q-Sun at these settings in pH 2.8 buffer with/without Compounds A and B in the presence/absence of the photo-stabilizers A (chlorogenic acid) and B (rutin, a.k.a. quercetin-3-rutinoside).
Direct sunlight was modeled using a Q-Sun Xenon Test Chamber (Q-Lab Model No. Xe-1-SC) at an irradiance setting of 350 mW/m^2 @340 nm, 25° C. Test samples were irradiated in the Q-Sun at these settings in pH 2.8 buffer with Compound A in the presence/absence of the photo-stabilizers. […] Direct sunlight was modeled using a Q-Sun Xenon Test Chamber (Q-Lab Model No. Xe-1-SC) at an irradiance setting of 350 mW/m^2 @340 nm, 25° C. Test samples were irradiated in the Q-Sun at these settings in pH 2.8 buffer with 25 μM of Compound A in the presence/absence of the photo-stabilizers at a concentration of 100 ppm. […] Direct sunlight was modeled using a Q-Sun Xenon Test Chamber (Q-Lab Model No. Xe-1-SC) at an irradiance setting of 350 mW/m^2 @340 nm, 25° C. Test samples were irradiated in the Q-Sun at these settings in pH 2.8 buffer with sweet enhancer Compound E in the presence/absence of the photostabilizers.

[2] = % of 25 μM Compound A remaining with the cinnamic acid or coumarin derivative at 100 ppm (Table 4), pH 2.8 buffer, Q-Sun 350 mW/m^2 @340 nm, 25° C.

Compound: COc1cc(C=CC(=O)O)cc(OC)c1O (stereo in doubt) [sinapinic acid]
- % Remaining @ 1 hr [1, 2]: 100.00%
- % Remaining @ 2 hrs [1, 2]: 99.98%
- % Remaining @ 4 hrs [1, 2]: 100.12%
- % Remaining @ 6 hrs [1, 2]: 98.52%

Compound: COc1ccc2ncc(C(=O)O)c(N)c2c1 [Compound B]
- % of compound degraded after 6 hr of irradiation ([1]; pH 2.8): about 80%

Compound: CCC(CC)COc1cccc2nc(C)c(C(=O)O)c(N)c12 [Example 22, 4-amino-5-(2-ethylbutoxy)-2-methylquinoline-3-carboxylic Acid]
- melting point: 145 to 151 °C

Compound: Cc1nc2cccc(OCC(C)(C)NC(=O)c3ccncc3)c2c(N)c1C(=O)O [Example 24, 4-amino-5-(2-(isonicotinamido)-2-methylpropoxy)-2-methylquinoline-3-carboxylic Acid]
- melting point: 195 to 198 °C

Compound: Cc1nc2cccc(OCC(C)(C)NC(=O)c3cccc(O)c3)c2c(N)c1C(=O)O [Example 25, 4-amino-5-(2-(3-hydroxybenzamido)-2-methylpropoxy)-2-methylquinoline-3-carboxylic Acid]
- melting point: 195 to 198 °C

Compound: Cc1nc2cccc(OC3CCCCC3)c2c(N)c1C(=O)O [Example 36, 4-amino-5-(cyclohexyloxy)-2-methylquinoline-3-carboxylic Acid]
- melting point: 220 to 221.5 °C

Compound: Cc1nc2cccc(OCC(C)C)c2c(N)c1C(=O)O [Example 41, 4-amino-5-isobutoxy-2-methylquinoline-3-carboxylic Acid]
- melting point: 203.7 °C

Compound: Cc1nc2cccc(OCC(C)(C)C(=O)NC3CC3)c2c(N)c1C(=O)O [Example 135, 4-amino-5-(3-(cyclopropylamino)-2,2-dimethyl-3-oxopropoxy)-2-methyl-quinoline-3-carboxylic Acid]
- melting point: 227 to 229 °C

Compound: Cc1nc2cccc(OCC(C)(C)C(=O)NC3CCC3)c2c(N)c1C(=O)O [Example 136, 4-amino-5-(3-(cyclobutylamino)-2,2-dimethyl-3-oxopropoxy)-2-methylquinoline-3-carboxylic Acid]
- melting point: 183 to 187 °C

Compound: Cc1nc2cccc(O[C@H]3CC[C@H](NC(=O)C(C)C)CC3)c2c(N)c1C(=O)O [Example 137, 4-amino-5-(((1,4)-trans-4-isobutyramidocyclohexyl)oxy)-2-methylquinoline-3-carboxylic Acid]
- melting point: 183 to 185 °C

Compound: Cc1nc2cccc(OCC(C)(C)NC(=O)CC(C)C)c2c(N)c1C(=O)O [Example 138, 4-amino-2-methyl-5-(2-methyl-2-(3-methylbutanamido)propoxy)quinoline-3-carboxylic Acid]
- melting point: 195 to 198 °C

Compound: Cc1nc2cccc(OCC(C)(C)NC(=O)C(C)C)c2c(N)c1C(=O)O [Example 139, 4-amino-5-(2-isobutyramido-2-methylpropoxy)-2-methylquinoline-3-carboxylic Acid]
- melting point: 184 to 186 °C

Compound: Cc1nc2cccc(OCC(C)(C)NC(=O)C3CCOCC3)c2c(N)c1C(=O)O [Example 140, 4-amino-2-methyl-5-(2-methyl-2-(tetrahydro-2H-pyran-4-carboxamido)-propoxy)quinoline-3-carboxylic Acid]
- melting point: 170 to 173 °C

Compound: CCC(=O)NC(C)(C)COc1cccc2nc(C)c(C(=O)O)c(N)c12 [Example 141, 4-amino-2-methyl-5-(2-methyl-2-propionamidopropoxy)quinoline-3-carboxylic Acid]
- melting point: 189 to 193 °C

Compound: Cc1nc2cccc(OCC(C)(C)NC(=O)C3CCC3)c2c(N)c1C(=O)O [Example 142, 4-amino-5-(2-(cyclobutanecarboxamido)-2-methylpropoxy)-2-methylquinoline-3-carboxylic Acid]
- melting point: 186 to 190 °C

Compound: Cc1nc2cccc(OC3CCN(C(=O)C(C)C)CC3)c2c(N)c1C(=O)O [Example 143, 4-amino-5-((1-isobutyrylpiperidin-4-yl)oxy)-2-methylquinoline-3-carboxylic Acid]
- melting point: 184 to 186 °C

Compound: CCNC(=O)C(C)(C)COc1cccc2nc(C)c(C(=O)O)c(N)c12 [Example 144, 4-amino-5-(3-(ethylamino)-2,2-dimethyl-3-oxopropoxy)-2-methylquinoline-3-carboxylic Acid]
- melting point: 168 to 170 °C

Compound: Cc1nc2cccc(OCC(C)(C)NC(=O)CC3CCOCC3)c2c(N)c1C(=O)O [Example 145, 4-amino-2-methyl-5-(2-methyl-2-(2-(tetrahydro-2H-pyran-4-yl)acetamido)-propoxy)quinoline-3-carboxylic Acid]
- melting point: 175 to 178 °C

Compound: Cc1nc2cccc(OCC(C)(C)C(=O)NCC3CC3)c2c(N)c1C(=O)O [Example 146, 4-amino-5-(3-((cyclopropylmethyl)amino)-2,2-dimethyl-3-oxopropoxy)-2-methylquinoline-3-carboxylic Acid]
- melting point: 177 to 179 °C

Compound: CCCCNC(=O)C(C)(C)COc1cccc2nc(C)c(C(=O)O)c(N)c12 [Example 147, 4-amino-5-(3-(butylamino)-2,2-dimethyl-3-oxopropoxy)-2-methylquinoline-3-carboxylic Acid]
- melting point: 195 to 199 °C

Compound: O=C(O)/C=C/c1ccc(O)c(O)c1 [caffeic acid]
- % Remaining @ 1 hr ([1]; buffer, 1 h, 100 ppm, pH 2.8): 98.02%
- % Remaining @ 2 hrs ([1]; buffer, 2 h, 100 ppm, pH 2.8): 99.54%
- % Remaining @ 4 hrs ([1]; buffer, 4 h, 100 ppm, pH 2.8): 98.74%
- % Remaining @ 6 hrs ([1]; buffer, 6 h, 100 ppm, pH 2.8): 95.55%

Compound: O=c1ccc2ccc(O)c(O)c2o1 [daphnetin]
- % Remaining @ 1 hr ([1]; buffer, 1 h, 100 ppm, pH 2.8): 99.13%
- % Remaining @ 2 hrs ([1]; buffer, 2 h, 100 ppm, pH 2.8): 99.76%
- % Remaining @ 4 hrs ([1]; buffer, 4 h, 100 ppm, pH 2.8): 98.13%

Compound: COc1cc(/C=C/C(=O)O)ccc1O [ferulic acid]
- % Remaining @ 1 hr ([1]; buffer, 1 h, 100 ppm, pH 2.8): 95.41%
- % Remaining @ 2 hrs ([1]; buffer, 2 h, 100 ppm, pH 2.8): 96.49%
- % Remaining @ 4 hrs ([1]; buffer, 4 h, 100 ppm, pH 2.8): 93.43%
- % Remaining @ 6 hrs ([1]; buffer, 6 h, 100 ppm, pH 2.8): 93.85%

Compound: COc1cc([C@@H]2CC(=O)c3c(O)cc(O)cc3O2)ccc1O [homoeriodictol, homoeriodictyol]
- % Remaining @ 1 hr ([1]; buffer, 1 h, 12.5 ppm, pH 2.8): 90.83%
- % Remaining @ 2 hrs ([1]; buffer, 2 h, 12.5 ppm, pH 2.8): 82.75%
- % Remaining @ 4 hrs ([1]; buffer, 4 h, 12.5 ppm, pH 2.8): 57.70%
- % Remaining @ 6 hrs ([1]; buffer, 6 h, 12.5 ppm, pH 2.8): 24.54%

Compound: C[C@@H]1O[C@@H](O[C@H]2[C@H](Oc3cc(O)c4c(c3)O[C@H](c3ccc(O)cc3)CC4=O)O[C@H](CO)[C@@H](O)[C@@H]2O)[C@H](O)[C@H](O)[C@H]1O [naringin]
- % Remaining @ 1 hr ([1]; buffer, 1 h, 50 ppm, pH 2.8): 90.42%
- % Remaining @ 2 hrs ([1]; buffer, 2 h, 50 ppm, pH 2.8): 75.92%
- % Remaining @ 4 hrs ([1]; buffer, 4 h, 50 ppm, pH 2.8): 55.54%
- % Remaining @ 6 hrs ([1]; buffer, 6 h, 50 ppm, pH 2.8): 41.50%

Compound: COc1ccc(CCC(=O)c2c(O)cc(O[C@@H]3O[C@H](CO)[C@@H](O)[C@H](O)[C@H]3O[C@@H]3O[C@@H](C)[C@H](O)[C@@H](O)[C@H]3O)cc2O)cc1O [neohesperidin dihydrochalcone]
- % Remaining @ 1 hr ([1]; buffer, 1 h, 50 ppm, pH 2.8): 91.42%
- % Remaining @ 2 hrs ([1]; buffer, 2 h, 50 ppm, pH 2.8): 82.53%
- % Remaining @ 4 hrs ([1]; buffer, 4 h, 50 ppm, pH 2.8): 66.95%
- % Remaining @ 6 hrs ([1]; buffer, 6 h, 50 ppm, pH 2.8): 56.72%

Compound: O=C(CCc1ccc(O)cc1)c1c(O)cc(O)cc1O [phloretin]
- % Remaining @ 1 hr ([1]; buffer, 1 h, 25 ppm, pH 2.8): 89.62%
- % Remaining @ 2 hrs ([1]; buffer, 2 h, 25 ppm, pH 2.8): 80.75%
- % Remaining @ 4 hrs ([1]; buffer, 4 h, 25 ppm, pH 2.8): 64.60%
- % Remaining @ 6 hrs ([1]; buffer, 6 h, 25 ppm, pH 2.8): 50.64%

Compound: COc1cc2ccc(=O)oc2cc1O [scopoletin]
- % Remaining @ 4 hrs ([1]; buffer, 4 h, 100 ppm, pH 2.8): 100.07%
- % Remaining @ 6 hrs ([1]; buffer, 6 h, 100 ppm, pH 2.8): 95.72%
